Data on 19 molecules can be found in PubChem BioAssay (NCI).

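Briefly, cells in 96-well plates were exposed to five compound concentrations for 48 h, and endpoints were estimated by linear interpolation. Abbreviation: GI50, concentration required for 50% inhibition of growth. TGI: total growth inhibition.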

What all share (test): growth of human tumour cells (NCI), 48 h
In test [1] the test system is UO-31 renal.
Test [2] deals with TK-10 renal.
Test [3] concerns RXF 393 renal.
Test [4] deals with SK-MEL-28 melanoma.
For test [5], the system named is CCRF-CEM leukemia.
The subject of test [6] is U251 CNS.
In test [7] the test system is 786-0 renal.
For test [8], the system named is RPMI-8226 leukemia.
Test [9] relates to PC-3 prostate.
Test [10] deals with MCF7 breast.

As for `Cc1ccc(Sc2sc(-c3ccccc3)nc2[P+](c2ccccc2)(c2ccccc2)c2ccccc2)cc1`, the GI50 in test [1] is 0.24 µM; in [2] it was 0.336 µM; in test [3], 0.331 µM; in test [4] it was 0.605 µM; in [5], 0.373 µM; in test [6], 0.214 µM. For the same molecule, the GI50 in test [7] was 0.381 µM; in test [8], 0.178 µM; in test [9] it was 0.283 µM. For the same molecule, the TGI worked out at 0.811 µM in [1]; 1.64 µM in [2]; 1.38 µM in [3]; 1.88 µM in test [4]; 2 µM in test [5]; 1.4 µM in [6]. The TGI was 1.45 µM in [7], 0.523 µM in [8] and 1.18 µM in test [9].

Consider `Cc1cc(N(CCCl)CCCl)ccc1/C=N/NC(=O)Cc1cc(=O)oc2cc(O)ccc12`, for which the TGI is 47.2 µM in test [1]; 44.3 µM in [3]; 41.9 µM in test [4]; 46 µM in [5]; 43.4 µM in [6]; 59.7 µM in test [7]. The TGI in test [8] was determined as 57.5 µM; in test [9] it was 27.5 µM; in test [10], 20.4 µM.

`Clc1ccc(Nc2ccnc(NCCCNc3ccnc4cc(Cl)ccc34)n2)cc1`: the GI50 in [1] is 1.68 µM; in test [2], 1.94 µM; in test [4] it was 1.64 µM; in [6], 1.48 µM; in [7], 1.73 µM; in [9], 1.58 µM. Further, the TGI in test [1] was 3.31 µM; in test [2] it was 3.41 µM; in [4], 3.07 µM; in test [6] it was 2.91 µM; in [7] it was 3.33 µM; in [9] it was 3.13 µM.

`N#Cc1ccc2c(c1)C(=O)c1c-2n(CCCN)c(=O)c2cc([N+](=O)[O-])ccc12`: the GI50 in [1] is 0.0605 µM; in test [2] it was 1.74 µM; in test [3], 0.906 µM; in [4], 0.975 µM; in [5], 0.038 µM; in [6] it was 0.0718 µM. For the same molecule, the GI50 in [7] is 0.61 µM; in test [8], 0.099 µM; in test [9], 0.317 µM. Further, the TGI in [1] was found to be 1.44 µM; in [2] it was 3.72 µM; in test [3], 2.22 µM; in test [4] it was 2.59 µM; in [5], 0.442 µM; in [6] it was 0.497 µM. Also, the figures for the TGI in test [7], in test [8] and in test [9] were 2.16 µM, 0.815 µM and 1.95 µM, respectively.

`C=C1C(=O)OC2CC(C)C3C=CC(=O)C3CC12` (configuration not stated): the TGI in test [1] amounted to 8.41 µM; in test [2], 8.07 µM; in test [3], 3.03 µM; in [4] it was 4.16 µM; in test [5], 5.14 µM; in test [6], 20.6 µM. The TGI in [7] worked out at 3.66 µM; in test [8] it was 7.03 µM; in test [9] it was 7.17 µM.

Regarding `C=C1C(=O)O[C@H]2[C@H]1CC/C(Cn1cc(-c3cc(C)c(C)cc3C)nn1)=C\CC[C@@]1(C)O[C@@H]21`, the GI50 was 0.528 µM in test [1]; 1.46 µM in test [2]; 0.962 µM in test [3]; 1.4 µM in test [4]; 0.458 µM in [5]; 1.53 µM in test [6]. Also, the GI50 in test [7] is 1.5 µM; in test [8], 1.18 µM; in test [9], 1.47 µM. Besides, the TGI in test [1] worked out at 1.89 µM; in test [2] it was 2.83 µM; in [3], 2.21 µM; in test [4], 2.89 µM; in [5], 2.65 µM; in [6], 2.91 µM. For the same molecule, the TGI in test [7] worked out at 3.18 µM; in [8] it was 4.11 µM; in test [9], 3 µM.

Turning to `COc1ccccc1-c1cc(=O)c2ccc(OC)c(OC)c2o1`, the TGI in test [1], in test [2], in test [3], in [4], in test [5] and in test [6] was more than 100 µM in each case. Moreover, the TGI in test [7], in [8] and in test [10] was more than 100 µM throughout.

As for `CCSc1nnc(-c2ccc3ccccc3c2O)n1-c1ccc(Cl)cc1`, the GI50 is 3.31 µM in test [1]; 42.3 µM in test [3]; more than 100 µM in test [4]; 3.58 µM in test [5]; 4.05 µM in [6]; 60.3 µM in test [7]. Besides, the GI50 in test [8] is 4.83 µM; in [9], 50.1 µM; in [10], 6.66 µM. In addition, the TGI in test [1], in [3], in test [4], in test [5], in [6] and in test [7] was more than 100 µM throughout. The TGI in [8], in test [9] and in test [10] was more than 100 µM in each case.

As for `Nc1nc(-c2cccc([N+](=O)[O-])c2)cc(-c2cc(-c3cccc([N+](=O)[O-])c3)nc(N)n2)n1`, the TGI in test [1], in [2], in test [3], in test [4], in test [6] and in test [7] was more than 100 µM throughout. The TGI in [8], in test [9] and in [10] was more than 100 µM in each case.

Regarding `COc1ccc(-c2csc(NC(=O)c3cc(O)c(O)c(O)c3)n2)cc1`, the GI50 was 1.65 µM in test [1]; 6.36 µM in test [2]; 7.31 µM in test [3]; 13.2 µM in [4]; 1.55 µM in test [5]; 4.09 µM in test [6]. In addition, the GI50 was 11 µM in test [7], 5.59 µM in [8] and 10.7 µM in test [10]. For the same molecule, the TGI in [1] was more than 33.3 µM; in [2], more than 33.3 µM; in test [3] it was more than 33.3 µM; in test [4], more than 33.3 µM; in test [5], 17.6 µM; in test [6] it was more than 33.3 µM. In addition, the TGI in test [7], in test [8] and in test [10] was more than 33.3 µM in each case.

For `N#Cc1c(N)nc(N2CCOCC2)c(C#N)c1-c1ccccc1Cl`, the GI50 in test [1] was 14.5 µM; in test [3] it was 17.5 µM; in test [4], 33.6 µM; in test [5], 45 µM; in test [6], 50 µM; in test [7] it was 62.1 µM. Moreover, the GI50 was 21.5 µM in test [8], 22.6 µM in [9] and 17.7 µM in test [10]. Besides, the TGI in test [1] was 43.4 µM; in test [3] it was 72.3 µM; in test [4], more than 100 µM; in test [5], more than 100 µM; in [6], more than 100 µM; in test [7], more than 100 µM. Also, the TGI in [8] is more than 100 µM; in test [9], more than 100 µM; in [10], 88.7 µM.

Regarding `COc1ccc(N(C)c2c3ccccc3nc3[nH]c4ccccc4c23)cc1`, the GI50 in test [1] was 2.83 µM; in [2], 0.681 µM; in [3], 5.4 µM; in test [4] it was 3.86 µM; in test [6] it was 0.525 µM; in [7], 0.444 µM. Further, the results for the GI50 in test [8], in [9] and in test [10] were 0.139 µM, 0.424 µM and 0.168 µM, respectively. For the same molecule, the TGI in [1] was 22.2 µM; in test [2], 1.63 µM; in test [3], 22.3 µM; in [4] it was 21.8 µM; in test [6] it was 2.39 µM; in test [7] it was 1.9 µM. In addition, the TGI in [8] was determined as 0.528 µM; in test [9], 2.63 µM; in test [10], 0.655 µM.

For the molecule `CC(=O)OC1Oc2ccccc2-c2oc(=O)c(-c3cc4ccccc4oc3=O)cc21` (configuration not stated), the GI50 in [1] was 18 µM; in test [2] it was 18.3 µM; in [4], 32.7 µM; in test [5], 23.2 µM; in test [6] it was 14.7 µM; in test [7], 16.6 µM. Moreover, the GI50 was 18.7 µM in test [8], 29.1 µM in test [9] and 15.3 µM in test [10]. The TGI in [1] was found to be 35.4 µM; in test [2] it was 37.2 µM; in [4], 87.3 µM; in test [5] it was 54.2 µM; in [6] it was 28.3 µM; in test [7], 31.3 µM. Besides, the values for the TGI in test [8], in test [9] and in [10] were 41.2 µM, more than 100 µM and 34.1 µM, respectively.

As for `Cc1cc2cn3c4cccnc4[nH]c(=O)c3c2cc1C`, the GI50 was 1.5 µM in [1]; 2.27 µM in [2]; 1.46 µM in test [3]; 1.53 µM in test [4]; 1.87 µM in [7]; 1.89 µM in test [8]. The GI50 in test [9] was 1.42 µM. The TGI in test [1] was found to be 2.97 µM; in [2], 3.91 µM; in test [3] it was 2.88 µM; in [4], 2.95 µM; in test [7], 3.33 µM; in test [8] it was 4.66 µM. The same molecule showed a TGI in [9] of 2.89 µM.

In the case of `COc1ccc2c(c1)/C(=N/OC(C)=O)c1c-2c(=O)[nH]c2ccccc12`, the GI50 was 11.1 µM in test [1]; 15.2 µM in test [2]; 12.7 µM in test [4]; 4.09 µM in test [5]; 15.5 µM in test [6]; 15.9 µM in test [7]. In addition, the values for the GI50 in test [8], in test [9] and in test [10] were 5.12 µM, 11.8 µM and 66.3 µM, respectively. The TGI in test [1] turned out to be 25.2 µM; in test [2], 58 µM; in [4], 26.6 µM; in test [5], 23.6 µM; in test [6], 30.1 µM; in test [7], 43.6 µM. Further, the TGI was 21.8 µM in test [8], 26 µM in [9] and more than 100 µM in [10].

In the case of `COC(=O)C1C(OCc2ccccc2)C2CCC1(OC)C=C2C` (configuration not stated), the TGI is more than 100 µM in test [1]; more than 100 µM in [2]; more than 100 µM in test [3]; more than 100 µM in test [4]; 65 µM in test [5]; more than 100 µM in test [6]. Also, the TGI in test [7] and in test [8] was more than 100 µM throughout.

Consider `COc1ccc2c(c1)/C(=C/c1cc(OC)c(OC)c(OC)c1)C(=O)N2C`, for which the GI50 is 3.91 µM in test [1]; 3.56 µM in [2]; 3.58 µM in test [4]; 2.21 µM in test [5]; 1.94 µM in test [6]; 3.82 µM in test [7]. Besides, the GI50 is 1.59 µM in test [8], 2.92 µM in [9] and 1.83 µM in test [10]. Moreover, the TGI was more than 55.7 µM in test [1]; more than 31.6 µM in test [2]; 22.5 µM in test [4]; 7.04 µM in test [5]; 4.83 µM in [6]; 23.7 µM in test [7]. For the same molecule, the TGI in [8] is 4.43 µM; in test [9] it was more than 100 µM; in test [10], more than 25.8 µM.

`O=C1CS/C(=N\S(=O)(=O)c2ccc(N3N=C4c5ccccc5CC4C3c3ccc(Cl)cc3)cc2)N1c1ccccc1` (configuration not stated): the GI50 was 29.1 µM in [1]; 29.7 µM in [2]; 29.4 µM in [3]; 13.7 µM in [5]; 27.8 µM in [6]; 46.6 µM in test [7]. For the same molecule, the GI50 in test [8] was 26.4 µM; in [9] it was 22.6 µM; in test [10] it was 18.7 µM. In addition, the TGI in test [1] was more than 100 µM; in [2], more than 100 µM; in [3] it was 81.3 µM; in test [5], 58.3 µM; in test [6], 64.8 µM; in test [7], more than 100 µM. Besides, the TGI in [8] turned out to be 88.7 µM; in test [9], 58.6 µM; in test [10], 47.9 µM.

For the molecule `Cc1cc(=O)oc2cc(OS(C)(=O)=O)ccc12`, the TGI in [2], in [3], in [4], in test [5], in [6] and in test [7] was more than 100 µM throughout. In addition, the TGI in test [8], in test [9] and in [10] was more than 100 µM throughout.
